From patent US8357375B2, “Process for the preparation and use of a bivalent vaccine against morphine-heroine addiction” (Instituto Nacional de Psiquiatria Ramon de la Fuente Muniz, priority 2004, dated 2013)

Test system: anti-morphine-heroin serum antibodies
Test: competitive immunoenzymatic ELISA for antibody specificity
Type: binding, rat
Conditions: competitive antigen, nM-μM range

| Compound | cross-recognition by anti-morphine-heroin serum antibodies |
| --- | --- |
| CN1CC[C@]23c4c5ccc(O[C@@H]6O[C@H](C(=O)O)[C@@H](O)[C@H](O)[C@H]6O)c4O[C@H]2[C@@H](O)C=C[C@H]3[C@H]1C5 [morphine-3-glucuronide] | cross-recognize |
| CN1CC[C@]23c4c5ccc(O)c4O[C@H]2[C@@H](O[C@@H]2O[C@H](C(=O)O)[C@@H](O)[C@H](O)[C@H]2O)C=C[C@H]3[C@H]1C5 [morphine-6-glucuronide] | cross-recognize |
| O=C1CC[C@@]2(O)[C@H]3Cc4ccc(O)c5c4[C@@]2(CCN3CC2CC2)[C@H]1O5 [naltrexone] | no cross-recognition |
| β-endorphin (YGGFMTSEKSQTPLVTLFKNAIIKNAYKKGE; Beta-endorphin; UniProt P01189 237-267, looked up) [endogenous opioid peptide produced in the CNS of mammals] | not able to cross-recognize |
